# Legend:
# GPIIb/IIIa = biological target: T1, GPIIb/IIIa (Homo sapiens, UniProt P05106+P08514); assay: Bonding of fibrinogen to pure GPIIb/IIIa; type: binding; details: biotinated fibrinogen, 37° C., 3 hours
# T1 construct: GPIIb/IIIa was purified according to a Fitzgerald et al's method; from tissue; host or cells: platelets (human, inferred from the cited Fitzgerald method)
# Procedure: Bonding of fibrinogen to pure GPIIb/IIIa: GPIIb/IIIa was purified according to a Fitzgerald et al's method. Fibrinogen was biotinated with NHS-LC-Biotin (manufactured by Pierce Co.). The pure GPIIb/IIIa was added to TBS (20 mM Tris-HCl, pH 7.4, 150 mM NaCl, 1 mM CaCl2, 1 mM MgCl2) at one μg/ml. 100 μl of the resulting solution was put into a 96-well plate (MaxiSorp™, manufactured by Nunc Co.) and left at 4° C. overnight. […] After the solution was removed, a sample compound to be tested and the biotinated fibrinogen were added to the plate and reacted at 37° C. for 3 hours. […] This was washed three times with 300 μl of T-TBS.
# [1] = system: platelet aggregation (PRP; ADP and collagen as triggers); assay: Ex vivo platelet aggregation-inhibiting activity in cynomolgus monkeys; details: 3 mg/kg via stomach tube, 20 μM ADP and 10 μg/ml collagen, mean ± SEM (n = 3)
# Procedure: Ex vivo platelet aggregation-inhibiting activity in cynomolgus monkeys:
# Cynomolgus monkeys that had been lightly anesthetized by intramuscular administration of ketamine hydrochloride were fixed on a work-bench, and a sample compound of the present invention as dissolved in 2 ml of […] was forcedly administered into its stomach via a stomach tube at a dose of 3 mg/kg. Before the administration and after the administration at a predetermined period of time, 3 ml (containing 1/10 times by volume of sodium citrate) of the blood was collected from the animal through its femoral vein. From the blood was obtained platelet-rich-plasma (PRP) of 300,000/μl, according to the De Marco et al's method (see J. clin. Invest., 77, 1272-1277, 1988). The PRP was adjusted at 3×10^8 /ml with an automatic blood cell counter (MEK-5158 Model, produced by Nihon Koden Co.) before use. Added thereto were 20 μM of ADP and 10 μg/ml of bovine tendon-derived collagen (produced by Niko Bioscience Co.) as triggers, whereby the aggregation of the platelets was caused in the PRP. The degree of the aggregation of the platelets was measured with a platelet aggregation meter (NBS Hematracer 801, produced by Niko Bioscience Co.). The platelet aggregation-inhibiting activity of the tested compound was represented by the inhibition percentage (%) relative to the maximum aggregation percentage of each animal before the addition of the compound thereto.
# T1 sequence (P08514 32-887 limits assumed): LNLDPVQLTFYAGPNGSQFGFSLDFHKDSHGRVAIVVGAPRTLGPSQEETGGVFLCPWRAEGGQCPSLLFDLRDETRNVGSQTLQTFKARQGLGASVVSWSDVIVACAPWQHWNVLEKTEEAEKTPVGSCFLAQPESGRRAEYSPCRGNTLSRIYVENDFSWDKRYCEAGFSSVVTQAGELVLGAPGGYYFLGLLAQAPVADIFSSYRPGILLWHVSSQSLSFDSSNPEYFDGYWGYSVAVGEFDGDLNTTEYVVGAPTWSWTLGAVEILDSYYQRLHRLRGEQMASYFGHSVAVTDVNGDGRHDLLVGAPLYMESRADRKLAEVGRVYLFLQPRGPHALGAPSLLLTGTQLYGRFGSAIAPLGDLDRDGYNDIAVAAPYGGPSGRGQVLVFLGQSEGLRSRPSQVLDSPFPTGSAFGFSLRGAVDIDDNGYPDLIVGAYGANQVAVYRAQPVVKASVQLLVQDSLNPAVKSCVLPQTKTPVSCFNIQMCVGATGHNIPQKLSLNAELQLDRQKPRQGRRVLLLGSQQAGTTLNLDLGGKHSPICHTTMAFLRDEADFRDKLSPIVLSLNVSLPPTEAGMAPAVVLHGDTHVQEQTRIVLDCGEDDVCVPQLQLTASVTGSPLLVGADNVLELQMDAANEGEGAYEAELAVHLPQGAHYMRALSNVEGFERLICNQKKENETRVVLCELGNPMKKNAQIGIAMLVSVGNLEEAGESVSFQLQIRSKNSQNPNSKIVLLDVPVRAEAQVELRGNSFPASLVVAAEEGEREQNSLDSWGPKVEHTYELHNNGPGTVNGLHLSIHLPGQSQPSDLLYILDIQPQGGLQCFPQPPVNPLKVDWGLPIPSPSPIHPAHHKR
# T1 sequence (P08514 891-1039 limits assumed): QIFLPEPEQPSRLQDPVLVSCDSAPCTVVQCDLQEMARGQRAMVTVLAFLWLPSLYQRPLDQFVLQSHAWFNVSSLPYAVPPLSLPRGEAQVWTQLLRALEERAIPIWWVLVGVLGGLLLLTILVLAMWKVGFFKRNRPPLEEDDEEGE
# T1 sequence (P05106 27-788): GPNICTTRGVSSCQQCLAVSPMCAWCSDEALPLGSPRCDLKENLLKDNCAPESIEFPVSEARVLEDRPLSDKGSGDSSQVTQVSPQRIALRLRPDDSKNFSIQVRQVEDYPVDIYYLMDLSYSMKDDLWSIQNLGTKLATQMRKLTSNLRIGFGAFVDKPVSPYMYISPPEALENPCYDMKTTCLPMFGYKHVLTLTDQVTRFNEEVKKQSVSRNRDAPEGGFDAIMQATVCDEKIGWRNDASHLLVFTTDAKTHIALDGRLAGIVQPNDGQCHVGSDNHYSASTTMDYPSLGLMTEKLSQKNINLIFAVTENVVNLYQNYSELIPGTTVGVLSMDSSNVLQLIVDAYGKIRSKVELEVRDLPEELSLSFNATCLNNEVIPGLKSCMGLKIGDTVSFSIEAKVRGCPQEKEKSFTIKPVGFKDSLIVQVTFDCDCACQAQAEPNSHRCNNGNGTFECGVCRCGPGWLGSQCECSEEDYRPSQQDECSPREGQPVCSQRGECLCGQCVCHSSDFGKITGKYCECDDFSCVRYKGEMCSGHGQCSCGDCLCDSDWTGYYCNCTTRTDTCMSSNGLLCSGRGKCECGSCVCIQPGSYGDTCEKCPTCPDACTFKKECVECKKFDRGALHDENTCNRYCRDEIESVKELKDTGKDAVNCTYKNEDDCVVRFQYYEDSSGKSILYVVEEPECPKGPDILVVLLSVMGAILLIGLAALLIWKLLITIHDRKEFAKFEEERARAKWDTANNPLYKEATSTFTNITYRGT
SMILES,IC50 (GPIIb/IIIa),"platelet aggregation-inhibition ratio (%), 2 hours after [1]","platelet aggregation-inhibition ratio (%), 4 hours after [1]","platelet aggregation-inhibition ratio (%), 6 hours after [1]","platelet aggregation-inhibition ratio (%), 9 hours after [1]","platelet aggregation-inhibition ratio (%), 12 hours after [1]","platelet aggregation-inhibition ratio (%), 24 hours after [1]"
"Cl.N=C(N)c1ccc(N2CCN(C3CCN(CC(=O)O)CC3CC(=O)O)CC2)cc1 (centres unmarked) [Example 8, 4-[4-(4-Amidinophenyl)-1-piperazinyl]-1,3-piperidinediacetic acid hydrochloride]",8.4 nM,57 ± 20%,98 ± 1.0%,98 ± 1.2%,81 ± 19%,100 ± 0%,24 ± 9.1%
"N=C(N)c1ccc(N2CCN(C3CCN(CC(=O)O)CC3)CC2=O)cc1 [Example 18, 4-[4-(4-Amidinophenyl)-3-oxo-1-piperazinyl]-1-piperidineacetic acid]",,86 ± 8.4%,98 ± 0.9%,75 ± 25%,97 ± 1.7%,99 ± 0.7%,34 ± 11%
"N=C(N)c1ccc(N2CC(=O)N(C3CCN(CC(=O)O)CC3)CC2=O)cc1 [Example 16, 4-[4-(4-amidinophenyl)-2,5-dioxo-1-piperazinyl]-1-piperidineacetic acid]",10.4 nM,,,,,,
